Source: US20110034531A1, “USE OF HDAC INHIBITORS FOR THE TREATMENT OF MELANOMA” (NOVARTIS AG, priority 2007, published 2011)

How the values were obtained:
A2058 = test: Monolayer growth inhibition assay (MTT/MTS), A2058; format: cell-based; conditions: A2058 melanoma cell line, treated for 3 days
Description: (§1) The MTT is a colorimetric assay to determine the cell proliferation rate. The yellow tetrazolium MTT (3-(4,5-dimethylthiazolyl-2)-2,5-diphenyltetrazolium bromide) is reduced by metabolically active cells, in part by the action of dehydrogenase enzymes, to generate reducing equivalents, such as NADH and NADPH. The resulting intracellular purple formazan can be solubilized and quantified by spectrophotometric means. The signals produced is directly proportional to the cell numbers. Describing the MTT assay in detail, experiments were done using six-point or nine-point drug titrations in multi-well tissue culture dishes, with outer rows left empty. Cells were suspended in complete media at densities of between 10^3 and 10^4 cell/mL, respectively, and added per well. The appropriate medium (200 μL) was then added. […] This plate was incubated at 37° C. for 4 hours and the optical density was measured on a Molecular Devices Thermomax at 490 nm using the Softmax program. […]
(§2) Compound addition began 24 hours after seeding, the same time as the T0 determination. […] The MTS solution was added (as for the To plate) and read 4 hours later. […]
(§3) A panel of Melanoma cell lines were treated with DMSO vehicle control or varying concentrations of LBH589 for 3 days. Cell proliferation was measured on the day of cell plating and on the third day post-treatment. IC50 and LD50 values were calculated as described above.

[1] = tested on: panel of Melanoma cell lines
Description: as §1, §2, §3

WM-266-4 = test: Monolayer growth inhibition assay (MTT/MTS), WM-266-4; format: cell-based; conditions: WM-266-4 melanoma cell line, treated for 3 days
Description: as §1, §2, §3

RPMI-7951 = test: Monolayer growth inhibition assay (MTT/MTS), RPMI-7951; format: cell-based; conditions: RPMI-7951 melanoma cell line, treated for 3 days
Description: as §1, §2, §3

A375 = test: Monolayer growth inhibition assay (MTT/MTS), A375; format: cell-based; conditions: A375 melanoma cell line, treated for 3 days
Description: as §1, §2, §3

G-361 = test: Monolayer growth inhibition assay (MTT/MTS), G-361; format: cell-based; conditions: G-361 melanoma cell line, treated for 3 days
Description: as §1, §2, §3

MeWo = test: Monolayer growth inhibition assay (MTT/MTS), MeWo; format: cell-based; conditions: MeWo melanoma cell line, treated for 3 days
Description: as §1, §2, §3

SK-MEL-28 = test: Monolayer growth inhibition assay (MTT/MTS), SK-MEL-28; format: cell-based; conditions: SK-MEL-28 melanoma cell line, treated for 3 days
Description: as §1, §2, §3

SK-MEL-5 = test: Monolayer growth inhibition assay (MTT/MTS), SK-MEL-5; format: cell-based; conditions: SK-MEL-5 melanoma cell line, treated for 3 days
Description: as §1, §2, §3

[2] = concentration reducing cell number to 50% of original inoculum
[3] = Homo sapiens, 72 h, read-out: IC50 [nM] Measure of Cell Growth Inhibition

## Cc1[nH]c2ccccc2c1CCNCc1ccc(/C=C/C(=O)NO)cc1 [LBH589, N-hydroxy-3-[4-[[[2-(2-methyl-1H-indol-3-yl)-ethyl]-amino]methyl]phenyl]-2E-2-propenamide]
A2058; [2]
  LD50 (nM) Measure of Cell Kill: 58.96 nM
A2058; [3]
  IC50: 17.8 nM
[1]; 3 days
  LD50, cytotoxic effect: < 160 nM
[1]; all 8 melanoma cell lines examined, treated for 3 days
  IC50 values, anti-proliferative effect: low nanomolar
WM-266-4; [3]
  IC50: 26.4 nM
WM-266-4; [2]
  LD50 (nM) Measure of Cell Kill: 73.05 nM
RPMI-7951; [3]
  IC50: 27.6 nM
RPMI-7951; [2]
  LD50 (nM) Measure of Cell Kill: 71.63 nM
A375; [2]
  LD50 (nM) Measure of Cell Kill: 77.83 nM
A375; Homo sapiens, A-375, 72 h, read-out: IC50 [nM] Measure of Cell Growth Inhibition
  IC50: 32.7 nM
G-361; [2]
  LD50 (nM) Measure of Cell Kill: 51.44 nM
G-361; [3]
  IC50: 8.09 nM
MeWo; [3]
  IC50: 34.5 nM
MeWo; [2]
  LD50 (nM) Measure of Cell Kill: 157.64 nM
SK-MEL-28; [3]
  IC50: 43.1 nM
SK-MEL-28; [2]
  LD50 (nM) Measure of Cell Kill: 129.33 nM
SK-MEL-5; [3]
  IC50: 6.15 nM
SK-MEL-5; [2]
  LD50 (nM) Measure of Cell Kill: 54.95 nM
